From publication PMC8036603, “Small Molecule Inhibitors of White Spot Syndrome Virus: Promise in Shrimp Seedling Culture” (International Journal of Molecular Sciences, 2021)

How the values were obtained:
[1] = tested on: Shrimp (L. vannamei) larvae; assay: Acute toxicity assay in shrimp larvae; format: in vivo, Litopenaeus vannamei; conditions: after 72 h of exposure
Procedure: Shrimp (L. vannamei) larvae (total length: 0.5 ± 0.04 cm, body weight: 4.2 ± 0.4 mg, mean ± SD) were provided by Zhejiang Mariculture Research Institute Qingjiang Station (Wenzhou, China). The larvae were maintained in a culture pond at 28 °C, fed four times a day with commercial feed pellets, and collected randomly for PCR testing to verify the WSSV-free status prior to the trial.
Acute toxicity of the coumarin derivatives was investigated by exposing larvae to a range of compound concentrations, from 0.1 mg/L to 100 mg/L of coumarin derivatives, where the dose setting was based on the data from preliminary tests in our laboratory. A DMSO-control (2%, v/v, the highest percentage of DMSO in treatments) served as the control. During the experiment, every 20 larvae were moved into six-well plates filled with 6 mL/per well freshly prepared test solutions for a 72-h incubation at 28 °C with a natural photoperiod. […] To avoid deterioration of water quality, dead shrimps were immediately removed at the point of observation. Three replicate experiments were performed.
Compound response curves were represented by a logistic sigmoidal function with a maximal effect level (Amax) and Hill coefficient representing the sigmoidal transition (Origin 8.1; http://www.originlab.com, accessed on 25 March 2021). Statistical analyses were performed using SPSS (version 18.0) statistical software (SPSS Inc., Chicago, IL, USA). The LC50 and EC50 values with 95% CIs were calculated using probit analysis. Virus titers were log10-transformed prior to statistical analyses. Unpaired Student’s t-tests were used to compare coumarin-treated samples and negative-control DMSO samples for determining significance and data are presented as mean values ± SD.

[2] = tested on: white spot syndrome virus (WSSV); assay: Anti-WSSV activity in shrimp larvae, co-incubation, copy number of viral genome by RT-qPCR; format: in vivo, Litopenaeus vannamei
[3] = Solubility / precipitation in aquacultural water; format: physicochemical
Procedure: Prior to evaluation of the anti-WSSV activity of coumarins, the safety doses for larvae needed to be determined. […] In contrast, the electron-withdrawing group was more toxic than the electron-donating group, with the LC50 of A5‒A8 being <5 mg/L at 72 h. […] Based on preliminary analysis of the structure-activity relationship (SAR) of similar spatial structures with different substituents of electron-donating and electron-withdrawing groups to coumarins A1, B1, and C1, we considered that […] of compounds; this provides a basis for further research.
All conventional reagents and solvents are purchased directly from commercial companies and no further purification is required. Organic solvents were purchased from Sinopharm chemical reagent Co., Ltd. and purified by distillation and moisture was excluded from the glass apparatus using CaCl2 drying tubes. Throughout this study, silica gel H (200–300 mesh; Qingdao Marine Chemical Factory, Qingdao, China) was used for the column chromatography. For thin layer chromatographic (TLC) plates, Silica gel (GF254) (Qingdao Marine Chemical Factory, Qingdao, China) were used for thin layer chromatographic (TLC) analysis, and all of the spots and bands were detected by UV irradiation (254, 365 nm). The intermediates and products were characterized by electrospray ionization mass spectrometry (TripleTOF5600þ; AB SCIEX Pte. Ltd., Boston, MA, USA), ^1H NMR and ^13C NMR (Bruker AM500 spectrometer; Bruker Corporation, Berne, Switzerland). The derivatives were dissolved in 100% dimethyl sulfoxide (DMSO; Beyotime Biotechnology, Haimen, China), stored at 4 °C prior to antiviral evaluation, and used within 6 months. For solubility, the stock solutions, at a concentration of 50 mg/mL, were sonicated for approximately 10 min to ensure that the derivatives were fully dissolved and mixed.

[4] = tested on: white spot syndrome virus (WSSV); conditions: buffer; cited from earlier work
[5] = test range 0.4~100 mg/L, aquacultural water, LC50 NONE

N#CC1=C(N)Oc2c(c(=O)oc3ccccc23)C1c1ccc([N+](=O)[O-])cc1 (centres unmarked) [C8]
signs of toxicity at the saturation concentration [1]: No signs of toxicity were observed
EC50 ([2]; Whispovirus xiabaidian, 72 h, read-out: EC50 (mg/L; 95% CI), median effective concentration, WSSV-infected larvae, copy number of viral genome, 72 h, 95% CI in brackets): 6.6 mg/L
inhibitory efficiency on WSSV replication ([2]; six-point dose-response, viral genome copy number in larvae): exceeded 90%
solubility in aquacultural water [3]: insoluble
lowest precipitation concentration [3, 5]: NONE (16) mg/L
lowest precipitation concentration (bracketed value in LC50 48 h column) [3, 5]: NONE (16) mg/L
lowest precipitation concentration (bracketed value in LC50 72 h column) [3, 5]: NONE (16) mg/L
half-life in aquacultural and sterilized deionized water [4]: 24 to 48 h
